# In US10130642B2, “Neprilysin inhibitors” (THERAVANCE BIOPHARMA R&D IP, LLC, priority 2011, dated 2018):
# Molecular target: human NEP (Homo sapiens (Human), UniProt P08473)
# Assay: In vitro enzyme inhibition assay, inhibitor potencies at human NEP
# Conditions: not given
# Chain of human NEP (P08473 52-750): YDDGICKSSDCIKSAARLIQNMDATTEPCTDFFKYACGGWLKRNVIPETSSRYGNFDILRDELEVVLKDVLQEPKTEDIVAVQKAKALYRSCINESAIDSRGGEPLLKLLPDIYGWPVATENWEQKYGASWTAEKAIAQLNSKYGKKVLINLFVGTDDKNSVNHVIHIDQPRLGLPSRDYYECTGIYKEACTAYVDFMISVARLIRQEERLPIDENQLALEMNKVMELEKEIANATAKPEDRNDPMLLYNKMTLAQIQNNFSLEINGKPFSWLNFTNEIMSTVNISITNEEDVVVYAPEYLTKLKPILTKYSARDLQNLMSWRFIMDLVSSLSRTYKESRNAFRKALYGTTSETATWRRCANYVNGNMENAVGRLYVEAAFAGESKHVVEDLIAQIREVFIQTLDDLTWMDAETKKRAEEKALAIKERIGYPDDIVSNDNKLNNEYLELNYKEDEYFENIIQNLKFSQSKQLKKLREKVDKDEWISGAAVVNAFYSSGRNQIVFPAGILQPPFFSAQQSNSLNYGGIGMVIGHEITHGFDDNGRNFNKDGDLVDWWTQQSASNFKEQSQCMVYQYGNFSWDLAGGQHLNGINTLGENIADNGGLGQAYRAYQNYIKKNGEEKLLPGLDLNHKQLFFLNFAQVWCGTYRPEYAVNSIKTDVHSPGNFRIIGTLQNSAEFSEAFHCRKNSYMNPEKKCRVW
row,Compound,Ki [nM]
1,"C[C@@](CO)(C[C@@H](Cc1ccc(-c2ccccc2)cc1)NC(=O)c1nc(O)n[nH]1)C(=O)O [Example 6-2, (2S,4R)-5-Biphenyl-4-yl-2-hydroxymethyl-4-[(5-hydroxy-2H-[1,2,4]triazole-3-carbonyl)-amino]-2-methyl-pentanoic acid]",12.6 to 100
2,"C[C@](CO)(C[C@@H](Cc1ccc(-c2ccccc2)cc1)NC(=O)c1cnn[nH]1)C(=O)O [Example 6-3, (2R,4R)-5-Biphenyl-4-yl-2-hydroxymethyl-2-methyl-4-[(3H-[1,2,3]triazole-4-carbonyl)-amino]-pentanoic acid]",12.6 to 100
3,"C[C@@](CO)(C[C@@H](Cc1ccc(-c2ccccc2)cc1)NC(=O)c1cn(O)nn1)C(=O)O [Example 6-4, (2S,4R)-5-Biphenyl-4-yl-2-hydroxymethyl-4-[(1-hydroxy-1H-[1,2,3]triazole-4-carbonyl)-amino]-2-methyl-pentanoic acid]",≤ 1
4,"C[C@@](CO)(C[C@@H](Cc1ccc(-c2ccccc2)cc1)NC(=O)c1cn(Cc2ccccc2)nn1)C(=O)O [Example 6-6, (2S,4R)-4-[(1-Benzyl-1H-[1,2,3]triazole-4-carbonyl)-amino]-5-biphenyl-4-yl-2-hydroxymethyl-2-methyl-pentanoic acid]",12.6 to 100
5,"CC(CO)(C[C@@H](Cc1ccc(-c2ccccc2)cc1)NC(=O)c1cc(C(=O)O)n[nH]1)C(=O)O (stereo partly drawn) [Example 6-15, 5-((R)-1-Biphenyl-4-ylmethyl-3-carboxy-4-hydroxy-3-methyl-butylcarbamoyl)-1H-pyrazole-3-carboxylic acid]",≤ 1
6,"CC(=O)c1cc(C(=O)N[C@H](Cc2ccc(-c3ccccc3)cc2)C[C@@](C)(CO)C(=O)O)[nH]n1 [Example 6-16, (2S,4R)-4-[(5-Acetyl-2H-pyrazole-3-carbonyl)-amino]-5-biphenyl-4-yl-2-hydroxymethyl-2-methyl-pentanoic acid]",12.6 to 100
7,"C[C@@](CO)(C[C@@H](Cc1ccc(-c2ccccc2)cc1)NC(=O)c1cc(O)n[nH]1)C(=O)O [Example 6-17, (2S,4R)-5-Biphenyl-4-yl-2-hydroxymethyl-4-[(5-hydroxy-2H-pyrazole-3-carbonyl)-amino]-2-methyl-pentanoic acid]",1.26 to 10
8,"C[C@@](CO)(C[C@@H](Cc1ccc(-c2ccccc2)cc1)NC(=O)c1cnc(O)nc1)C(=O)O [Example 6-18, (2S,4R)-5-Biphenyl-4-yl-2-hydroxymethyl-4-[(2-hydroxy-pyrimidine-5-carbonyl)-amino]-2-methyl-pentanoic acid]",≤ 1
9,"C[C@@](CO)(C[C@@H](Cc1ccc(-c2ccccc2)cc1)NC(=O)c1cc(O)no1)C(=O)O [Example 6-19, (2S,4R)-5-Biphenyl-4-yl-4-[(3-hydroxy-isoxazole-5-carbonyl)-amino]-2-hydroxymethyl-2-methyl-pentanoic acid]",≤ 1
10,"C[C@@](CO)(C[C@@H](Cc1ccc(-c2cccc(F)c2)cc1)NC(=O)c1cnn[nH]1)C(=O)O [Example 8-1, (2S,4R)-5-(3′-Fluorobiphenyl-4-yl)-2-hydroxymethyl-2-methyl-4-[(3H-[1,2,3]triazole-4-carbonyl)-amino]-pentanoic acid]",≤ 1
11,"C[C@@](CO)(C[C@@H](Cc1ccc(-c2ccccc2F)cc1)NC(=O)c1cnn[nH]1)C(=O)O [Example 8-2, (2S,4R)-5-(2′-Fluorobiphenyl-4-yl)-2-hydroxymethyl-2-methyl-4-[(3H-[1,2,3]triazole-4-carbonyl)-amino]-pentanoic acid]",≤ 1
12,"C[C@@](CO)(C[C@@H](Cc1ccc(-c2ccc(F)cc2)cc1)NC(=O)c1cnn[nH]1)C(=O)O [Example 8-3, (2S,4R)-5-(4′-Fluorobiphenyl-4-yl)-2-hydroxymethyl-2-methyl-4-[(3H-[1,2,3]triazole-4-carbonyl)-amino]-pentanoic acid]",12.6 to 100
13,"C[C@@](CO)(C[C@@H](Cc1ccc(-c2ccccc2F)cc1)NC(=O)c1cn(O)nn1)C(=O)O [Example 8-4, (2S,4R)-5-(2′-Fluoro-biphenyl-4-yl)-2-hydroxymethyl-4-[(1-hydroxy-1H-[1,2,3]triazole-4-carbonyl)-amino]-2-methyl-pentanoic acid]",≤ 1
14,"C[C@@](CO)(C[C@@H](Cc1ccc(-c2ccccc2F)cc1)NC(=O)c1coc(=O)[nH]1)C(=O)O [Example 8-5, (2S,4R)-5-(2′-Fluoro-biphenyl-4-yl)-2-hydroxymethyl-2-methyl-4-[(2-oxo-2,3-dihydro-oxazole-4-carbonyl)-amino]-pentanoic acid]",≤ 1
15,"C[C@@](CO)(C[C@@H](Cc1ccc(-c2ccccc2F)cc1)NC(=O)c1c[nH]c(=O)o1)C(=O)O [Example 8-6, (2S,4R)-5-(2′-Fluoro-biphenyl-4-yl)-2-hydroxymethyl-2-methyl-4-[(2-oxo-2,3-dihydro-oxazole-5-carbonyl)-amino]-pentanoic acid]",≤ 1
16,"CC(C)(c1ccc(-c2ccccc2)cc1)[C@H](C[C@@H](CO)C(=O)O)NC(=O)c1cc(O)no1 [Example 9, (2S,4S)-5-Biphenyl-4-yl-4-[(3-hydroxy-isoxazole-5-carbonyl)-amino]-2-hydroxymethyl-5-methyl-hexanoic Acid]",≤ 1
17,"CC(C)(c1ccc(-c2ccccc2)cc1)[C@H](C[C@@H](CO)C(=O)O)NC(=O)c1cn(O)nn1 [Example 10-1, (2S,4S)-5-Biphenyl-4-yl-2-hydroxymethyl-4-[(1-hydroxy-1H-[1,2,3]triazole-4-carbonyl)-amino]-5-methyl-hexanoic acid]",≤ 1
18,"CC(C)(c1ccc(-c2ccccc2)cc1)[C@H](C[C@@H](CO)C(=O)O)NC(=O)c1cnn[nH]1 [Example 10-2, (2S,4S)-5-Biphenyl-4-yl-2-hydroxymethyl-5-methyl-4-[(3H-[1,2,3]triazole-4-carbonyl)-amino]-hexanoic acid]",≤ 1

# Same assay, conditions: pKi values at human NEP; recombinant human NEP, fluorogenic peptide substrate, 37° C.
row,Compound,pKi
1,"C[C@@](CO)(C[C@@H](Cc1ccc(-c2cccc(F)c2)cc1)NC(=O)c1cc(C(=O)O)n[nH]1)C(=O)O [Example 7, 5-[(1R,3S)-3-Carboxy-1-(3′-fluorobiphenyl-4-ylmethyl)-4-hydroxy-3-methyl-butylcarbamoyl]-1H-pyrazole-3-carboxylic Acid]",≥9.0
